Measured values as given in ChEMBL document CHEMBL3886620, “Substituted imidazopyrazines as Akt kinase inhibitors” (2016).

Key:
[1] = biological target: RAC-alpha serine/threonine-protein kinase (Homo sapiens, UniProt P31749); test: (§1) Akt1 TR-FRET assay: His-tagged human recombinant kinase full-length Akt1 expressed in insect cells was purchased form Invitrogen (part number PV 3599). As substrate for the kinase reaction the biotinylated peptide biotin-Ahx-KKLNRTLSFAEPG (C-terminus in amide form) was used which can be purchased e.g. from the company Biosynthan GmbH (Berlin-Buch, Germany). For the assay 50 nl of a 100 fold concentrated solution of the test compound in DMSO was pipetted into a black low volume 384 well microtiter plate (Greiner Bio-One, Frickenhausen, Germany), 2 μl of a solution of Akt1 in assay buffer [50 mM TRIS/HCl pH 7.5, 5 mM MgCl2, 1 mM dithiothreitol, 0.02% (v/v) Triton X-100 (Sigma)] were added and the mixture was incubated for 15 min at 22 °C. to allow prebinding of the test compounds to the enzyme before the start of the kinase reaction. Then the kinase reaction was started by the addition of 3 μl of a solution of adenosine-tri-phosphate (ATP, 16.7 μM=>final conc. in the 5 μl assay volume is 10 μM) and substrate (1.67 μM=>final conc. in the 5 μl assay volume is 1 μM) in assay buffer and the resulting mixture was incubated for a reaction time of 60 min at 22 °C. […]
[2] = biological target: RAC-beta serine/threonine-protein kinase (Homo sapiens, UniProt P31751); test: as §1, with “Akt2 TR-FRET” for “Akt1 TR-FRET”, “full-length Akt2” for “full-length Akt1”, “cells and activated by PDK1” for “cells”, “purchased from” for “purchased form”, “PV 3975).” for “PV 3599).”, “of Akt2” for “of Akt1”
Chain of RAC-beta serine/threonine-protein kinase (P31751 whole entry): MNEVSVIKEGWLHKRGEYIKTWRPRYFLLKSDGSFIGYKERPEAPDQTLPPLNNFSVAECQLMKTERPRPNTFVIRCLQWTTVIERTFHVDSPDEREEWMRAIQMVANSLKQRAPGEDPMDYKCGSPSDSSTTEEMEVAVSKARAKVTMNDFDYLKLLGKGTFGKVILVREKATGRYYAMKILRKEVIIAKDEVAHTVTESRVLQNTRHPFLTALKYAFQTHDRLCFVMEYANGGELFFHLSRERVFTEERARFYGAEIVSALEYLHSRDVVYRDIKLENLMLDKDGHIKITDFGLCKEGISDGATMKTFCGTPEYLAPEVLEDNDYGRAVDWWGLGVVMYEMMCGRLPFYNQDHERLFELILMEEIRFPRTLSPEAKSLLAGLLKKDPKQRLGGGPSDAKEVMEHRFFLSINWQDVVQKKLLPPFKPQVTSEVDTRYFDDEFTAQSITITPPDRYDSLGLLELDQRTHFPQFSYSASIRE

Chain of RAC-alpha serine/threonine-protein kinase (P31749 whole entry): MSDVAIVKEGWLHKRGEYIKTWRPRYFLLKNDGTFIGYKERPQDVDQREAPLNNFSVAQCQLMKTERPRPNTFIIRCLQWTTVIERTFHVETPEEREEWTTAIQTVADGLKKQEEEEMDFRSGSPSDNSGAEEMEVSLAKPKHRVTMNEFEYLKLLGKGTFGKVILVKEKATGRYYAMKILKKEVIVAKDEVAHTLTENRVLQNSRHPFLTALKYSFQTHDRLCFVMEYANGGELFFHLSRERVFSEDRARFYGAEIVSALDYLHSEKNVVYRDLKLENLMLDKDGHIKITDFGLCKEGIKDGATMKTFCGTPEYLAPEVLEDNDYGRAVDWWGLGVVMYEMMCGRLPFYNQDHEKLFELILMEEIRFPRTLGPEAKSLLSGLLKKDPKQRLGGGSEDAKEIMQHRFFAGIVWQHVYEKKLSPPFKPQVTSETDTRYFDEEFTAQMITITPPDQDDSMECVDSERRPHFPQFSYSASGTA

SMILES: CCOC(=O)c1cn2c(-c3ccccc3)c(-c3ccc(C4(N)CCC4)cc3)nc2cn1
- IC50 [1]: 100 nM
- IC50 [2]: 130 nM
